One test deals with T1, IGF1R in MCF-7 cells (Homo sapiens, UniProt P08069).
T1 construct: endogenous in cells; host or cells: MCF-7 cells
Description: Autophosphorylation of IGF-1R in MCF7 cells after stimulation with IGF-1 (Test B), ELISA. In kind it is cell-based. Particulars: compound added one hour before IGF1 stimulation (10 minutes). On the procedure:
B) Measurement of the Autophosphorylation of IGF-1r in MCF7 Cells after Stimulation with IGF-1
Cell Culturing and Execution of the Test:
The autophosphorylation of IGF1R in the IGF1-induced cells is evaluated by means of an ELISA technique (Enzyme Linked ImmunoSorbent Assay). The MCF-7 are seeded at 60 000 cells per well in 6-well plates and incubated at 37° C., 5% CO2 in medium containing 10% serum. After one night in 10% serum, the cells are deprived of serum for 24 hours. The compounds are added to the medium one hour before stimulation with IGF1. After 10 minutes of stimulation with IGF1, the cells are lysed with a buffer (Hepes 50 mM pH 7.6, Triton X100 1%, orthovanadate 2 mM, protease inhibitor cocktail). The cell lysates are incubated on a 96-well plate precoated with an anti-IGF1R antibody, followed by incubation with an anti-phosphotyrosine antibody coupled to the enzyme peroxidase. The level of peroxidase activity (measured by OD with a luminescent substrate) reflects the phosphorylation status of the receptor.
(§1) (i) The tests are performed in duplicate and the mean of the two tests is calculated.
(§2) (ii) The value of the signal of the maximum response is calculated from the positive control: cells stimulated with IGF1 without compound.
(§3) (iii) Value of the signal of the minimum response is calculated from the negative control: cells not stimulated with IGF1 without compound.
(§4) (iv) By using these values as maximum (100%) and minimum (0%), respectively, the data were normalized so as to give a percentage of the maximum response.
(§5) (v) A curve of dose response is plotted and the IC50 (the concentration of which the compound induces a 50% decrease in the signal) of the compound is calculated by non-linear regression analysis.
In general terms: In an ELISA, binding on a coated surface is turned into a signal by an enzyme label.

In test [1] the target is T2, IGF-1R (human cytoplasmic domain fused with GST) (Homo sapiens, UniProt P08069).
T2 construct: The human cytoplasmic domain of IGF-1R was cloned by fusion with glutathione S-transferase (GST); made in house; host or cells: SF21 insect cells (baculovirus, pFastBac-GST)
Description: Kinase IGF-1R test (Test A): inhibition of autophosphorylation of the enzyme, HTRF. In kind it is biochemical. The conditions noted are these: 120 μM ATP. On the procedure: A) Experimental Protocol for the Kinase IGF-1R Test:
The inhibitory activity of the compounds on IGF1R is determined by measuring the inhibition of autophosphorylation of the enzyme using a time-resolved fluorescence test (HTRF). The human cytoplasmic domain of IGF-1R was cloned by fusion with glutathione S-transferase (GST) in the baculovirus expression vector pFastBac-GST. The protein is expressed in the SF21 cells and purified to about 80% homogeneity. For the enzymatic test, the test compound at 10 mM dissolved in DMSO is diluted in 1/3 steps in a 50 mM Hepes, pH 7.5, 5 mM MnCl2, 50 mM NaCl, 3% Glycerol, 0.025% Tween 20 buffer. To measure the inhibition, the successive dilutions of the compound are preincubated for 30 minutes and 90 minutes in the presence of 5 nM of enzyme, the final DMSO concentration not exceeding 1%. The enzymatic reaction is initiated to have a final ATP concentration of 120 μM, and is stopped after 5 minutes by addition of 100 mM Hepes, pH 7.0 buffer containing 0.4 M of potassium fluoride, 133 mM EDTA, 0.1% BSA, the XL665-labelled antibody anti-GST and the anti-phosphotyrosine antibody conjugated to europium cryptate Eu—K (Cis-Bio Int.). The characteristics of the two fluorophores, XL-665 and Eu—K, are available in G. Mathis et al., Anticancer Research, 1997, 17, pages 3011-3014. The energy transfer between the excited europium cryptate to the acceptor XL665 is proportional to the degree of autophosphorylation of IGF-1R. The specific long-lasting signal of XL-665 is measured in a GENios Pro TECAN plate counter. The inhibition of autophosphorylation of IGF-1R at time 30 minutes and 90 minutes with the test compounds of the invention is calculated relative to a 1% in DMSO control, whose activity is measured in the absence of compound. The curve representing the percentage of inhibition as a function of the log of the concentration is established to determine the concentration corresponding to 50% inhibition (IC50).
In general terms: Time-resolved FRET reads energy transfer from a long-lived donor to a nearby acceptor.

Test [2] concerns the target MEF-IGF1R cells (stable clone transfected with hIGF-1R) (Homo sapiens, UniProt P08069). Briefly: Proliferation/viability of MEF-IGF1R (Test C), [14C]thymidine incorporation. Particulars: rhIGF1 100 ng/mL, 72 hours, read-out: Test C IC50. In kind it is cell-based. As for the experimental part:
C) Measurement of the Proliferation/Viability of MEF-IGF1R
Cell culture: the MEF-IGF1R cells (stable clone of cells transfected with the receptor hIGF-1R) are cultured at 37° C. under 5% CO2 in EMEM medium containing 10% FCS.
Test procedure: the cells are seeded at 5000 cells per well in 96-well Cytostar plates (Amersham) with 0.2 mL of EMEM culture medium at 37° C. for 18 hours. The cells are then washed twice with EMEM medium and left to culture without serum for 24 hours. The compounds are then added at various concentrations in the presence of rhIGF1 (100 ng/mL) and 0.1 μCi of Thymidine [^14C] (specific activity ˜50 mCi/mmol) to give 0.2 mL of volume per well. After incubation for 72 hours in the presence of the compound, at 37° C. under 5% CO2, the incorporation of Thymidine [^14C] is measured by counting the radioactivity on a Microbeta trilux counter (Perkin-Elmer). The IC50 is determined from 10 increasing concentrations of the compound.
as §1, §2, §3, §4, §5

Where [3] appears, read: preincubation with enzyme 30 minutes, read-out: Test A 30′ IC50.
Where [4] appears, read: preincubation with enzyme 90 minutes, read-out: Test A 90′ IC50.

Where two headings read alike, the source gives them in different places.

The text below walks through data of patent US7935819B2, “Cyclic urea derivatives, preparation thereof and pharmaceutical use thereof as kinase inhibitors” (Aventis Pharma S.A., priority 2006, dated 2011).

A word on the IC50: it is the midpoint of a concentration-inhibition curve.

T1 sequence (P08069 31-1367): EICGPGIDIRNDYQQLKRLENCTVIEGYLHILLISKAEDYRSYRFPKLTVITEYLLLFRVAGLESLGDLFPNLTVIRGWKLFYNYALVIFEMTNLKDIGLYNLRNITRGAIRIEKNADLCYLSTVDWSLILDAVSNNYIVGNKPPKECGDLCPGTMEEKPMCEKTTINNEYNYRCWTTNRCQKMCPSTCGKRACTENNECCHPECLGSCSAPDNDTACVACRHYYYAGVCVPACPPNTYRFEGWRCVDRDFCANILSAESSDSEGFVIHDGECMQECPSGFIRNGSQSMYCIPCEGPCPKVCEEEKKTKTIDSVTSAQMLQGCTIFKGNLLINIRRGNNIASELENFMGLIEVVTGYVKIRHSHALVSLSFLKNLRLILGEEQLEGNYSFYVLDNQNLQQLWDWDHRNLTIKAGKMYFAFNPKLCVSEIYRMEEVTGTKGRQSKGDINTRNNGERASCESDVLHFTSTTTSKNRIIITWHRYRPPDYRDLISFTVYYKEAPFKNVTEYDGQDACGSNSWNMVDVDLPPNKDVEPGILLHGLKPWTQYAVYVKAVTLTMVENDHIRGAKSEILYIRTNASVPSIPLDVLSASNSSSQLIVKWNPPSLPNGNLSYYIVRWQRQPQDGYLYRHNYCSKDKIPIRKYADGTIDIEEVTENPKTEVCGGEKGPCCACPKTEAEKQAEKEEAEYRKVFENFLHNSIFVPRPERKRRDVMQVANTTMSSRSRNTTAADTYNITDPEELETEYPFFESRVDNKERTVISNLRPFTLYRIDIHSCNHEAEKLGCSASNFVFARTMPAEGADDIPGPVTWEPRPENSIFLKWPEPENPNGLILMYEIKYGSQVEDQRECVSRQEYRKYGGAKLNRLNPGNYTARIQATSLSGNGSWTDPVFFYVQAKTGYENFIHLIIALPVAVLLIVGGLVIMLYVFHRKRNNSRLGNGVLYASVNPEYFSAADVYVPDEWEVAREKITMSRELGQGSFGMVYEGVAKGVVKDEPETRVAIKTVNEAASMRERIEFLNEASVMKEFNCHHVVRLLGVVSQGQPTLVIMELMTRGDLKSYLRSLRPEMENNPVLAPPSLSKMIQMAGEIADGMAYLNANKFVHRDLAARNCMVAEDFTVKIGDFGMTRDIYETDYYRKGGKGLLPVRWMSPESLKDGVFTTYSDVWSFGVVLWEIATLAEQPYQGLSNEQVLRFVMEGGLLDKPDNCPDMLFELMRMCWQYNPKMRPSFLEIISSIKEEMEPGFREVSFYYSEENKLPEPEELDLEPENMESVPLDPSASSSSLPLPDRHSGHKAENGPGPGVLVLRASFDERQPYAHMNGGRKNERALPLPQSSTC
T2 sequence (P08069 960-1367 limits assumed): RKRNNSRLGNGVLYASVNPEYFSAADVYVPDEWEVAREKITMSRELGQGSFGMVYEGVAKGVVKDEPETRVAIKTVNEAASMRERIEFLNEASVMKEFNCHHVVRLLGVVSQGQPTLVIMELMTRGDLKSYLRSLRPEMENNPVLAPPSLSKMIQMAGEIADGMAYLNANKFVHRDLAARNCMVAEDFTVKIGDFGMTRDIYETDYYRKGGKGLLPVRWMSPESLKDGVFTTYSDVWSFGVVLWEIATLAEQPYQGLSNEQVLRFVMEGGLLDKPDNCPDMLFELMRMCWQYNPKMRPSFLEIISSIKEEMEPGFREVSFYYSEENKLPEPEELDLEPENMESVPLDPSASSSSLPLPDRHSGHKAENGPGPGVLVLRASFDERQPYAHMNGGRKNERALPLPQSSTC
Chain of MEF-IGF1R cells (stable clone transfected with hIGF-1R) (P08069 whole entry, change not shown): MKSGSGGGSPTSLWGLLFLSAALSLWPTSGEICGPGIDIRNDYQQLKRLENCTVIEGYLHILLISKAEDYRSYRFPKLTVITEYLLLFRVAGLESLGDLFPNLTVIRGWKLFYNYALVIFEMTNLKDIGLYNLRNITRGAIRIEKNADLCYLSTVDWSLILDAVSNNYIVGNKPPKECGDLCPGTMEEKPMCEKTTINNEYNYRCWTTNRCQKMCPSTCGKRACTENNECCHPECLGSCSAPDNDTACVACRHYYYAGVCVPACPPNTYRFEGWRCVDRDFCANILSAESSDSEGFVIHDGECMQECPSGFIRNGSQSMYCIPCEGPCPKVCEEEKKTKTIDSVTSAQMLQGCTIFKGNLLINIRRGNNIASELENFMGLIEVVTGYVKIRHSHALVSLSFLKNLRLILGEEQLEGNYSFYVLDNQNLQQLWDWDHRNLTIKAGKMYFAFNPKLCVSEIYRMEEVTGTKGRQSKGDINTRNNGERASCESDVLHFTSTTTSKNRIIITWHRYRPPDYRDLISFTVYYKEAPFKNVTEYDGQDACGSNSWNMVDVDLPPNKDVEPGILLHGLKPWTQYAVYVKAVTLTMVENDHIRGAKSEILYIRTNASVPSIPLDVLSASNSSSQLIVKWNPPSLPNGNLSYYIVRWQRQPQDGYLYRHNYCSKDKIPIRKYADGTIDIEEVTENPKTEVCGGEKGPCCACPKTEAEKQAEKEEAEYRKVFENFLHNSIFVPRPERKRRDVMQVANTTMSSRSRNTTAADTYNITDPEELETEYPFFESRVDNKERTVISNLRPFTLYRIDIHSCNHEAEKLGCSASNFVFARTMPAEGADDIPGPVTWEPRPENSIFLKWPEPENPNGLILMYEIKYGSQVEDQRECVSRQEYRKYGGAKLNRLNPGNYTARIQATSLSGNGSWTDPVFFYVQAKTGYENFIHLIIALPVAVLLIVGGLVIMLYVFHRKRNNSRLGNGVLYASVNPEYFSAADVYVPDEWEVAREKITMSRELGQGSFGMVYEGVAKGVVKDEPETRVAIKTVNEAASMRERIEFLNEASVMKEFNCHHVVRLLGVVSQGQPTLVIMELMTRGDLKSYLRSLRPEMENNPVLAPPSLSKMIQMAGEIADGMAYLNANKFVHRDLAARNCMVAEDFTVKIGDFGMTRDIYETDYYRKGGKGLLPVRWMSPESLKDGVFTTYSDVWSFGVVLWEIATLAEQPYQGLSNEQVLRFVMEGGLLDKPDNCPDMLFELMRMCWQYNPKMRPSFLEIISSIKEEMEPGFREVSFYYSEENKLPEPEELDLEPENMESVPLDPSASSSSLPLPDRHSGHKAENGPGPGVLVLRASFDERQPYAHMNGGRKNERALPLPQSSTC

For `CC(C)(C)c1ccc(N2C(=O)N(Cc3ccnc(Nc4cccc(F)c4)c3)C(C)(C)C2=O)cc1` [Example 31I, 3-(4-tert-butylphenyl)-1-({2-[(3-fluorophenyl)-amino]pyridin-4-yl}methyl)-5,5-dimethylimidazolidine-2,4-dione], the IC50 is 10 to 100 nM on IGF1R in MCF-7 cells, > 100 nM in test [1] (setting [3]) and 10 to 100 nM in test [1] (setting [4]). Moreover, the GI50 in test [2] was < 10 nM.

`CC(C)(C)c1ccc(N2C(=O)N(Cc3ccnc(NC4CC4)c3)C(C)(C)C2=O)cc1` [Example 31J, 3-(4-tert-butylphenyl)-1-{[2-(cyclopropylamino)pyridin-4-yl]methyl}-5,5-dimethylimidazolidine-2,4-dione]: the results for the 50% inhibitory concentration (IC50) (against IGF1R in MCF-7 cells; in test [1] (setting [3]); in test [1] (setting [4])) were 10 to 100 nM, 10 to 100 nM and < 10 nM, respectively. In addition, the GI50 in test [2] lay within 10 to 100 nM.

In the case of `CC(C)(C)c1ccc(N2C(=O)N(Cc3ccnc(Nc4cccnc4Cl)c3)C(C)(C)C2=O)cc1` [Example 31K, 3-(4-tert-butylphenyl)-1-({2-[(2-chloropyridin-3-yl)amino]pyridin-4-yl}methyl)-5,5-dimethylimidazolidine-2,4-dione], the IC50 at IGF1R in MCF-7 cells is < 10 nM; in test [1] (setting [3]) it was 10 to 100 nM; in test [1] (setting [4]) it was 10 to 100 nM. In addition, the GI50 in test [2] is 10 to 100 nM.

With `CC(C)(C)c1ccc(N2C(=O)N(Cc3ccnc(Nc4ccc(Cl)nc4)c3)C(C)(C)C2=O)cc1` [Example 31L, 3-(4-tert-butylphenyl)-1-({2-[(6-chloropyridin-3-yl)amino]pyridin-4-yl}methyl)-5,5-dimethylimidazolidine-2,4-dione], the IC50 against IGF1R in MCF-7 cells is 10 to 100 nM; in test [1] (setting [3]), > 100 nM; in test [1] (setting [4]), 10 to 100 nM. Besides, in test [2], the GI50 lay in the range of 10 to 100 nM.

For `CC(C)(C)c1ccc(N2C(=O)N(Cc3ccnc(Nc4ccc(O)nc4)c3)C(C)(C)C2=O)cc1` [Example 31M, 3-(4-tert-butylphenyl)-1-({2-[(6-hydroxypyridin-3-yl)amino]pyridin-4-yl}methyl)-5,5-dimethylimidazolidine-2,4-dione], the 50% inhibitory concentration (IC50) (on IGF1R in MCF-7 cells; in test [1] (setting [3]); in test [1] (setting [4])) was 10 to 100 nM each time. For the same compound, the GI50 in test [2] lay in the range of 10 to 100 nM.

Regarding `CC(C)(CO)c1ccc(N2C(=O)N(Cc3ccnc(Nc4cccnc4)c3)C(C)(C)C2=O)cc1` [Example 31N, 3-[4-(2-hydroxy-1,1-dimethylethyl)phenyl]-5,5-dimethyl-1-{[2-(pyridin-3-ylamino)pyridin-4-yl]methyl}-imidazolidine-2,4-dione], the IC50 against IGF1R in MCF-7 cells was 10 to 100 nM; in test [1] (setting [3]), > 100 nM; in test [1] (setting [4]) it was 10 to 100 nM. The GI50 in test [2] was > 100 nM.

As for `CC(C)(C)c1ccc(N2C(=O)N(Cc3ccnc(NC(=O)Nc4cccnc4)c3)C(C)(C)C2=O)cc1` [Example 31O, 1-(4-{[3-(4-tert-butylphenyl)-5,5-dimethyl-2,4-dioxoimidazolidin-1-yl]methyl}pyridin-2-yl)-3-pyridin-3-ylurea], the IC50 at IGF1R in MCF-7 cells was 10 to 100 nM; in test [1] (setting [3]), > 100 nM; in test [1] (setting [4]), > 100 nM. Besides, the GI50 in test [2] was in the range of 10 to 100 nM.

Regarding `CC(C)(C)c1ccc(N2C(=O)N(Cc3ccnc(NC(N)=O)c3)C(C)(C)C2=O)cc1` [Example 31P, 1-(4-{[3-(4-tert-butylphenyl)-5,5-dimethyl-2,4-dioxoimidazolidin-1-yl]methyl}pyridin-2-yl)urea], the values for the IC50 (at IGF1R in MCF-7 cells; in test [1] (setting [3]); in test [1] (setting [4])) were 10 to 100 nM, 10 to 100 nM and < 10 nM, respectively. Also, in test [2], the GI50 was < 10 nM.

As to `COC(=O)Nc1cc(CN2C(=O)N(c3ccc(C(C)(C)C)cc3)C(=O)C2(C)C)ccn1` [Example 31Q, methyl (4-{[3-(4-tert-butylphenyl)-5,5-dimethyl-2,4-dioxoimidazolidin-1-yl]methyl}pyridin-2-yl)carbamate], the IC50 against IGF1R in MCF-7 cells is < 10 nM; in test [1] (setting [3]), 10 to 100 nM; in test [1] (setting [4]) it was < 10 nM. Further, the GI50 in test [2] fell in the range of 10 to 100 nM.

Turning to `CC(C)(C)c1ccc(N2C(=O)N(Cc3ccnc(Nc4ccc(CCN5CCCC5)cc4)c3)C(C)(C)C2=O)cc1` [Example 31U, 3-(4-tert-butylphenyl)-5,5-dimethyl-1-[(2-{[4-(2-pyrrolidin-1-ylethyl)phenyl]amino}pyridin-4-yl)methyl]imidazolidine-2,4-dione], the IC50 was < 10 nM at IGF1R in MCF-7 cells, 10 to 100 nM in test [1] (setting [3]) and < 10 nM in test [1] (setting [4]). Moreover, in test [2], the GI50 is < 10 nM.
